The test system of one series is Streptococcus mitis. The class given is cell-based. How it is done:
(§1) Bacteria were cultured aerobically in Mueller-Hinton broth (MHB), Brain and Heart Infusion broth (BHIB), or BHIB supplemented with 1% lysed horse blood and plated on Tryptone Soy Agar (TSA) plates containing 5% defibrinated sheep blood. […] Culture conditions for each organism are included in Table S1. Organisms were subcultured for 2 hrs to generate mid-logarithmic growth cultures for use as inoculates in experiments. Media reagents were obtained from Becton, Dickinson and Company (Sparks, MD).
(§2) Colonies from agar were transferred by sterile loop to growth media and incubated for 2 hrs at 37°C to achieve a McFarland density of 0.5. Bacteria inoculum cell densities were normalized to 5×10^5 cells/ml immediately before use photometrically and subsequently confirmed by colony count. Inoculum of C. albicans contained a cell density of 2.5×10^3 CFU/ml.
(§3) Bulk powdered peptides were first dissolved in 30% trifluoroethanol (TFE) at 1 mg/ml. Five hundred microliter aliquots of the stock solutions were lyophilized and stored under nitrogen at −20°C. Stock solutions at 2 mg/ml were prepared the day of experimentation from the peptide films by solubilizing a second time in either water or 20% TFE. Aβ stocks prepared in water were sonicated and insoluble peptide aggregates pelleted by centrifugation (10 min×16,000 g). Peptide concentrations in stock solutions were determined immediately before use by bicinchoninic acid (BCA) protein assay. […] For MIC experiments, peptides were serially diluted into growth media. For other experiments stocks were diluted into required working buffers. Experiments included controls for peptide buffer vehicle alone.
(§4) Peptide antimicrobial activity was determined as minimal inhibitory concentration (MIC). Experiments identified peptide MIC by broth microdilution susceptibility test in conjunction with CFU and alamar blue assays. Inoculum containing mid-logarithmic phase cells was dispensed into the wells of polypropylene 96-well plates (Fisher, Pittsburgh, PA) containing seven two-fold dilutions of test peptide in growth media. Plates were then incubated aerobically overnight (12 to 18 hrs) at 37°C. Peptide MIC was taken as the lowest concentration able reduce cell growth by CFU and alamar blue assays by at least two-fold and which correlated with the visible loss of a growth button on the bottom of microtiter wells. Experiments were repeated a minimum of three times for each organism, and tests included at least three replicates for each assay condition. Experiments included control serial dilutions of buffer vehicle alone.
(§5) Serial dilutions of incubants were prepared and streaked onto the surface of agar. The agar plates were then incubated overnight at 37°C and colonies forming units counted.
(§6) Microbial growth was determined by following the reduction of the synthetic metabolic substrate resazurin (alamar blue) to a fluorescent product by respiratory enzymes in living cells. Alamar blue assay is used in high throughput screens for antimicrobial agents and is available commercially in kit form from Invitrogen. Microbial growth in experiments was assayed with alamar blue kits according to the manufacturer's instructions. […] Fluorescence signal was measured at excitation of 530 nm and emission at 590 nm.

Another series relates to Pseudomonas aeruginosa. The format is cell-based. The method, then: as §1, §2, §3, §4, §5, §6
Series [1] has as its system Staphylococcus epidermidis. The format is cell-based. How it is done:
as §1, §2, §3, §4, §5, §6

A further series has as its system Escherichia coli. The class given is cell-based. The method, then:
as §1, §2, §3, §4, §5, §6

Another series concerns Streptococcus pyogenes. The format is cell-based. How it is done: as §1, §2, §3, §4, §5, §6
A further series concerns Candida albicans. The class given is cell-based. How it is done: as §1, §2, §3, §4, §5, §6
The subject of another series is Streptococcus salivarius. The format is cell-based. How it is done:
as §1, §2, §3, §4, §5, §6

The subject of the next series is Staphylococcus aureus. The format is cell-based. How it is done:
as §1, §2, §3, §4, §5, §6

The test system of the next series is Listeria monocytogenes. The class given is cell-based. How it is done: as §1, §2, §3, §4, §5, §6
For another series, the system named is Enterococcus faecalis. The class given is cell-based. The method, then: as §1, §2, §3, §4, §5, §6
A further series has as its system Streptococcus pneumoniae. The class given is cell-based. The method, then: as §1, §2, §3, §4, §5, §6
In another series the test system is Streptococcus agalactiae. The format is cell-based. The method, then: as §1, §2, §3, §4, §5, §6
The test system of the next series is E. faecalis. Put plainly: Growth curves of E. faecalis with peptide, CFU count. The note with it: 25 µg/ml peptide; growth with time by CFU; six experiments, four replicates (Figure 1A). The format is cell-based, Enterococcus faecalis. The method, then:
as §5

For series [2] the following is noted: clinical trial in AD patients; cited from earlier work.
For series [3], the system named is panel of clinically relevant organisms. Put plainly: MIC against panel of clinically relevant organisms, recombinant versus synthetic peptide. The class given is cell-based. The note with it: data not shown. How it is done:
Aβ and LL-37 peptides were prepared and purified by Dr. James I. Elliott at Yale University (New Haven, CT) using solid-phase peptide synthesis. Scrambled LL-37 peptide was from AnaSpec (San Jose, CA). […] Findings for recombinant and SPPS prepared peptides were equivalent in all experiments.
as §4

Values after ≈ are worked out from the molar mass of the structure shown. Where two headings read alike, the source gives them in different places. No end group written: not given here.

One may read the MIC as the lowest concentration that inhibits growth of the organism. The low end stands for a more susceptible organism, the high end for a less susceptible organism. On to “AIVVGGVMLGIIAGKNSGVDEAFFVLKQHHVEYGSDHRFEAD [reAβ42, Aβ42-1]”, for which the MIC in the series on Streptococcus mitis is above 50 µg/mL; in the series on Pseudomonas aeruginosa, above 50 µg/mL; in [1], above 50 µg/mL; against Escherichia coli, above 50 µg/mL; with Streptococcus pyogenes it was above 50 µg/mL; in the series with Candida albicans (pH 7) it was above 25 µg/mL. The minimum inhibitory concentration (MIC) was above 50 µg/mL with Streptococcus salivarius; above 50 µg/mL against Staphylococcus aureus; above 50 µg/mL with Listeria monocytogenes; 50 µg/mL against Enterococcus faecalis; 50 µg/mL with Streptococcus pneumoniae; above 50 µg/mL against Streptococcus agalactiae.
Regarding `CC[C@H](C)[C@H](NC(=O)[C@H](CCCCN)NC(=O)[C@H](CCC(=O)O)NC(=O)[C@H](CCCCN)NC(=O)[C@H](CO)NC(=O)[C@H](CCCCN)NC(=O)[C@H](CCCNC(=N)N)NC(=O)[C@H](Cc1ccccc1)NC(=O)[C@H](Cc1ccccc1)NC(=O)[C@H](CC(=O)O)NC(=O)CNC(=O)[C@H](CC(C)C)NC(=O)[C@@H](N)CC(C)C)C(=O)NCC(=O)N[C@@H](CCCCN)C(=O)N[C@@H](CCC(=O)O)C(=O)N[C@@H](Cc1ccccc1)C(=O)N[C@@H](CCCCN)C(=O)N[C@@H](CCCNC(=N)N)C(=O)N[C@H](C(=O)N[C@H](C(=O)N[C@@H](CCC(N)=O)C(=O)N[C@@H](CCCNC(=N)N)C(=O)N[C@H](C(=O)N[C@@H](CCCCN)C(=O)N[C@@H](CC(=O)O)C(=O)N[C@@H](Cc1ccccc1)C(=O)N[C@@H](CC(C)C)C(=O)N[C@@H](CCCNC(=N)N)C(=O)N[C@@H](CC(N)=O)C(=O)N[C@@H](CC(C)C)C(=O)N[C@H](C(=O)N1CCC[C@H]1C(=O)N[C@@H](CCCNC(=N)N)C(=O)N[C@H](C(=O)N[C@@H](CCC(=O)O)C(=O)N[C@@H](CO)C(=O)O)[C@@H](C)O)C(C)C)[C@@H](C)CC)C(C)C)[C@@H](C)CC` [LL-37], the MIC against Streptococcus mitis (Streptococcus mitis ATCC 6249, inoculum 5×10^5 cells/ml, mid-logarithmic phase, overnight (12 to 18 hrs) 37°C, visual inspection confirmed by alamar blue and CFU, repeated at least three times) was 6.25 µg/mL (≈ 1.39 µM); in the series on Pseudomonas aeruginosa (Pseudomonas aeruginosa ATCC 27853, inoculum 5×10^5 cells/ml, mid-logarithmic phase, overnight (12 to 18 hrs) 37°C, visual inspection confirmed by alamar blue and CFU, repeated at least three times), 6.25 µg/mL (≈ 1.39 µM); in [1] (Staphylococcus epidermidis ATCC 12228, inoculum 5×10^5 cells/ml, mid-logarithmic phase, overnight (12 to 18 hrs) 37°C, visual inspection confirmed by alamar blue and CFU, repeated at least three times) it was 25 µg/mL (≈ 5.56 µM); against Escherichia coli (Escherichia coli ATCC 25922, inoculum 5×10^5 cells/ml, mid-logarithmic phase, overnight (12 to 18 hrs) 37°C, visual inspection confirmed by alamar blue and CFU, repeated at least three times), 1.56 µg/mL (≈ 0.347 µM); in the series with Streptococcus pyogenes (Streptococcus pyogenes ATCC 19615, inoculum 5×10^5 cells/ml, mid-logarithmic phase, overnight (12 to 18 hrs) 37°C, visual inspection confirmed by alamar blue and CFU, repeated at least three times), 6.25 µg/mL (≈ 1.39 µM); in the series on Candida albicans (Candida albicans ATCC 10231, RPMI-1640 with 2% glucose, MOPS pH 7.0, inoculum 2.5×10^3 CFU/ml, mid-logarithmic phase, overnight (12 to 18 hrs) 37°C, visual inspection confirmed by alamar blue and CFU, repeated at least three times), 6.25 µg/mL (≈ 1.39 µM). The minimum inhibitory concentration (MIC) in the series with Streptococcus salivarius (Streptococcus salivarius ATCC 13419, inoculum 5×10^5 cells/ml, mid-logarithmic phase, overnight (12 to 18 hrs) 37°C, visual inspection confirmed by alamar blue and CFU, repeated at least three times) was 50 µg/mL (≈ 11.1 µM); with Staphylococcus aureus (Staphylococcus aureus ATCC 25923, inoculum 5×10^5 cells/ml, mid-logarithmic phase, overnight (12 to 18 hrs) 37°C, visual inspection confirmed by alamar blue and CFU, repeated at least three times), 6.25 µg/mL (≈ 1.39 µM); in the series with Listeria monocytogenes (Listeria monocytogenes ATCC 19112, inoculum 5×10^5 cells/ml, mid-logarithmic phase, overnight (12 to 18 hrs) 37°C, visual inspection confirmed by alamar blue and CFU, repeated at least three times), 25 µg/mL (≈ 5.56 µM); in the series on Enterococcus faecalis (Enterococcus faecalis ATCC 29212, inoculum 5×10^5 cells/ml, mid-logarithmic phase, overnight (12 to 18 hrs) 37°C, visual inspection confirmed by alamar blue and CFU, repeated at least three times) it was 6.25 µg/mL (≈ 1.39 µM); against Streptococcus pneumoniae (Streptococcus pneumoniae ATCC 49619, inoculum 5×10^5 cells/ml, mid-logarithmic phase, overnight (12 to 18 hrs) 37°C, visual inspection confirmed by alamar blue and CFU, repeated at least three times), 1.56 µg/mL (≈ 0.347 µM); with Streptococcus agalactiae (Streptococcus agalactiae ATCC 12386, inoculum 5×10^5 cells/ml, mid-logarithmic phase, overnight (12 to 18 hrs) 37°C, visual inspection confirmed by alamar blue and CFU, repeated at least three times) it was 12.5 µg/mL (≈ 2.78 µM). Further, in the series with E. faecalis, the “Action on E. faecalis growth (bacteriostatic or bactericidal)” value is on record as “potent bactericidal activity”.
`C[C@@H](C(=O)O)c1ccc(-c2ccccc2)c(F)c1` [tarenflurbil]: the “Rates of infection in patients receiving the drug” value in [2] is listed as “significantly increased rates of infection”.
As for “DAEFGHDSGFEVRHQKLVFFAEDVGSNKGAIIGLMVGGVVIA [roAβ42]”, the MIC with Streptococcus mitis is above 50 µg/mL; with Pseudomonas aeruginosa it was above 50 µg/mL; in [1], 3.13 µg/mL; in the series with Escherichia coli, 3.13 µg/mL; against Streptococcus pyogenes, above 50 µg/mL; with Candida albicans (pH 7), 0.78 µg/mL. The MIC in the series with Streptococcus salivarius is above 50 µg/mL; in the series with Staphylococcus aureus it was 12.5 µg/mL; in the series with Listeria monocytogenes, 6.25 µg/mL; in the series on Enterococcus faecalis, 3.13 µg/mL; against Streptococcus pneumoniae it was 6.25 µg/mL; in the series with Streptococcus agalactiae, above 50 µg/mL.
In the case of “recombinant Aβ42: Recombinant human Aβ42 purchased from rPeptide”, in series [3], the “Antimicrobial activity compared with synthetic Aβ42” value is reported as “Equivalent findings”.
